In brackets after ≈: the same amount, converted by molar mass. Several values for one entry are separate records, joined by “and”; a condition that tells them apart may be missing. Equal entries are not always repeated.
Columns and labels:
[1] = test system: non-growing UPEC CFT073; assay: Dilution-regrowth assay (screen, hit validation, dose-response) on stationary-phase UPEC; assay type: cell-based, Escherichia coli; conditions: for Regrowth, OD600 at 6h or 8h after dilution into drug-free medium: average
Method in brief: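 Regrowth (OD600 after 6 h, 37 °C) of diluted non-growing CFT073, following 24 h compound treatment of 24 h stationary cultures, defines activity relative to untreated control. Screen at 20 µM, validation at 20, 10, 5 µM (duplicates), dose–response in three biological replicates fitted by five-parameter logistic.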

[2] = test system: non-growing UPEC CFT073; assay: Dose-dependent killing analysis (CFU spot-plating) of stationary-phase UPEC; assay type: cell-based, Escherichia coli; conditions: for log10(CFU/ml) after treatment: E. coli in 1:4 CA-MHB (pH 7.4), individual replicates
Method in brief: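 Non-growing (stationary-phase) UPEC CFT073 treated with compounds in 96-well format at 200 μl, then 10-fold serially diluted in PBS and 10 μl spots plated on LB agar. Plates incubated overnight at 37 °C; colonies counted at lowest resolvable dilution to give CFU. Three biological replicates.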

[3] = test system: S. aureus DSM2569; assay: MIC, standard microdilution assay, growing S. aureus; assay type: cell-based, Staphylococcus aureus; conditions: Staphylococcus aureus, DSM2569; S. aureus; CA-MHB pH 7.4; read-out: MIC (μM) CA-MHB
Method in brief: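 Broth microdilution was used throughout. UPEC, P. aeruginosa and S. aureus were tested in CA-MHB buffered with 40 mM HEPES (pH 7.4); UPEC was additionally tested in LPM with 30 mM MES (pH 5.5). S. flexneri was grown in TSB. All determinations were run in triplicate.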

[4] = test system: non-growing S. aureus DSM2569; assay: Dose-dependent killing analysis (CFU spot-plating) of stationary-phase S. aureus;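 on average Δlog10(CFU/ml) (killing): drug concentration in µM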; assay type: cell-based, Staphylococcus aureus; conditions: S. aureus; for log10(CFU/ml) after treatment: individual replicates; for average Δlog10(CFU/ml) (killing): vs 9,097 before treatment
Procedure: To determine the spectrum of activity of the compounds that were effective against non-growing UPEC, we further assessed their efficacy against the well-characterized Gram-negative and Gram-positive reference strains P. aeruginosa DSM1117 and S. aureus DSM2569, respectively. The cultures were grown and treated for 24 h in 1:4 CA-MHB (pH 7.4). […].
For survival analysis, bacteria were cultivated as described for the dose–response dilution-regrowth assay. Assays with UPEC were conducted at the CBCS screening facility using 96-well plates with a 200 μl sample volume, and compounds were dispensed using the Echo® (Labcyte) system. P. aeruginosa and S. aureus samples were treated according to the protocol used for the dilution-regrowth experiments. Treated samples were serially diluted 10-fold in PBS, and 10 μl drops were spot-plated onto rectangular LB agar plates using either a Beckman NXP robot (for UPEC) or an Integra VIAFLO96 electronic pipette (for P. aeruginosa and S. aureus). The LB agar plates were incubated overnight at 37 °C and scanned. Colonies were counted at the spots of the lowest dilution where individual colonies could be accurately distinguished. Each colony was manually marked on a separate image layer using the GNU Image Manipulation Program, and counted using NIST’s Integrated Colony Enumerator (NICE 1.4) software. The experiments were performed in three biological replicates.

SMILES: CC1COc2c(N3CCN(C)CC3)c(F)cc3c(=O)c(C(=O)O)cn1c23 (centres unmarked) [Ofloxacin]
- Regrowth, OD600 at 6h or 8h after dilution into drug-free medium ([1]; E. coli in 1:4 CA-MHB (pH 7.4), concentration 0.25): 0.670
- Regrowth, OD600 at 6h or 8h after dilution into drug-free medium ([1]; E. coli in 1:4 CA-MHB (pH 7.4), concentration 0.5): 0.686
- Regrowth, OD600 at 6h or 8h after dilution into drug-free medium ([1]; E. coli in 1:4 CA-MHB (pH 7.4), concentration 1): 0.685
- Regrowth, OD600 at 6h or 8h after dilution into drug-free medium ([1]; E. coli in 1:4 CA-MHB (pH 7.4), concentration 2.5): 0.648
- Regrowth, OD600 at 6h or 8h after dilution into drug-free medium ([1]; E. coli in 1:4 CA-MHB (pH 7.4), concentration 5): 0.610
- Regrowth, OD600 at 6h or 8h after dilution into drug-free medium ([1]; E. coli in 1:4 CA-MHB (pH 7.4), concentration 10): 0.563
- Regrowth, OD600 at 6h or 8h after dilution into drug-free medium ([1]; E. coli in 1:4 CA-MHB (pH 7.4), concentration 30): 0.271
- Regrowth, OD600 at 6h or 8h after dilution into drug-free medium ([1]; E. coli in LPM (pH 5.5), concentration 0.25): 0.591
- Regrowth, OD600 at 6h or 8h after dilution into drug-free medium ([1]; E. coli in LPM (pH 5.5), concentration 0.5): 0.585
- Regrowth, OD600 at 6h or 8h after dilution into drug-free medium ([1]; E. coli in LPM (pH 5.5), concentration 1): 0.589
- Regrowth, OD600 at 6h or 8h after dilution into drug-free medium ([1]; E. coli in LPM (pH 5.5), concentration 2.5): 0.574
- Regrowth, OD600 at 6h or 8h after dilution into drug-free medium ([1]; E. coli in LPM (pH 5.5), concentration 5): 0.582
- Regrowth, OD600 at 6h or 8h after dilution into drug-free medium ([1]; E. coli in LPM (pH 5.5), concentration 10): 0.564
- Regrowth, OD600 at 6h or 8h after dilution into drug-free medium ([1]; E. coli in LPM (pH 5.5), concentration 30): 0.570
- log10(CFU/ml) after treatment ([2]; concentration 0.25): 9.204 log10(CFU/ml) and 8.602 log10(CFU/ml) and 8.778 log10(CFU/ml)
- log10(CFU/ml) after treatment ([2]; concentration 0.5): 9.041 log10(CFU/ml) and 8.301 log10(CFU/ml) and 8.699 log10(CFU/ml)
- log10(CFU/ml) after treatment ([2]; concentration 1): 9.204 log10(CFU/ml) and 8.778 log10(CFU/ml) and 8.602 log10(CFU/ml)
- log10(CFU/ml) after treatment ([2]; concentration 2.5): 9.204 log10(CFU/ml) and 8.845 log10(CFU/ml) and 8.699 log10(CFU/ml)
- log10(CFU/ml) after treatment ([2]; concentration 5): 8.477 log10(CFU/ml) (2×) and 8.301 log10(CFU/ml)
- log10(CFU/ml) after treatment ([2]; concentration 10): 8.544 log10(CFU/ml) and 8.230 log10(CFU/ml) and 8.176 log10(CFU/ml)
- MIC [3]: 2 µM (≈ 0.723 µg/mL)
- log10(CFU/ml) after treatment ([4]; concentration 0.1): 9.279 log10(CFU/ml) and 9.041 log10(CFU/ml) and 9.086 log10(CFU/ml)
- log10(CFU/ml) after treatment ([4]; concentration 0.5): 9.301 log10(CFU/ml) and 9.049 log10(CFU/ml) and 8.462 log10(CFU/ml)
- log10(CFU/ml) after treatment ([4]; concentration 2.5): 9.230 log10(CFU/ml) and 9.093 log10(CFU/ml) and 8.740 log10(CFU/ml)
- log10(CFU/ml) after treatment ([4]; concentration 10): 9.447 log10(CFU/ml) and 8.924 log10(CFU/ml) and 8.839 log10(CFU/ml)

SMILES: COc1c(N2CCNC(C)C2)c(F)cc2c(=O)c(C(=O)O)cn(C3CC3)c12 (centres unmarked) [Gatifloxacin]
- EC50 ([1]; Escherichia coli, E. coli, pH 7.4, regrowth delay of non-growing bacteria, 1:4 CA-MHB, 24 h treatment, OD600 6 h after 2500-fold dilution, read-out: EC50): 709 nM
- bactericidal effect against stationary-phase UPEC cultures ([2]; 20 µM, preliminary experiments): bactericidal effects
- MIC [3]: 0.5 µM (≈ 0.188 µg/mL)
- average Δlog10(CFU/ml) (killing) ([4]; drug conc. 0.1): -0.121 log10(CFU/ml)
- average Δlog10(CFU/ml) (killing) ([4]; drug conc. 0.5): -0.040 log10(CFU/ml)
- average Δlog10(CFU/ml) (killing) ([4]; drug conc. 2.5): 0.371 log10(CFU/ml)
- average Δlog10(CFU/ml) (killing) ([4]; drug conc. 10): 0.946 log10(CFU/ml)
